Experiment in all cases: inhibition of tumour cell growth, NCI panel, 48 h
In test [1] the test system is NCI-H522 lung.
Test [2] concerns LOX IMVI melanoma.
Test [3] concerns T-47D breast.
In test [4] the test system is MDA-MB-435.
Test [5] relates to KM12 colon.
Test [6] concerns MOLT-4 leukemia.
In test [7] the test system is 786-0 renal.
The test system of test [8] is HS 578T breast.
Test [9] relates to SR leukemia.
For test [10], the system named is MALME-3M melanoma.

Here are results for nine compounds from PubChem BioAssay (NCI).

Values joined by “and” are separate entries in the source; they are usually repeats but may differ in a detail not shown here. Identical values can stand only once.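 48-hour exposure; five concentrations; linearly interpolated endpoints. GI50 = concentration required for 50% inhibition of growth. The concentration for full growth arrest is given as TGI.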

As to `Clc1cc(Cl)c(OCC#CI)cc1Cl`, the GI50 in [1] was 1.53 µM; in [2], 1.33 µM; in test [3], 1.22 µM; in test [4], 2.02 µM; in [5], 13.9 µM; in test [6] it was 2.05 µM. The GI50 in test [7] is 1.69 µM; in [8], 16.9 µM. Moreover, the TGI in [1] was 3.7 µM; in test [2], 2.74 µM; in test [3], 3.01 µM; in test [4], 5.44 µM; in test [5], 27.5 µM; in test [6], 6.11 µM. Also, the TGI in test [7] is 3.39 µM; in test [8] it was 50.4 µM.
As to `COc1ccc(-c2n[nH]nc2-c2cc(OC)c3c(c2OC)OCO3)cc1`, the GI50 was 0.299 µM in test [9]; 0.486 µM in test [1]; 0.746 µM in test [2]; 1.73 µM in [3]; 0.227 µM in [4]; 1.34 µM in test [10]. Also, the GI50 is 0.426 µM in test [5], 0.463 µM in test [6], 3.07 µM in test [7] and 0.958 µM in test [8]. The TGI in [9] is 22.6 µM; in test [1], 3.67 µM; in test [2] it was 19 µM; in test [3], greater than 100 µM; in test [4], 0.761 µM; in test [10] it was greater than 100 µM. Further, the TGI in [5] came to 44.7 µM; in [6], 33.1 µM; in test [7] it was 71.9 µM; in test [8], 15 µM.
For `Cc1ccc(-c2cc(-c3ccc(C)cc3)nc(NCCNc3ccnc4cc(Cl)ccc34)n2)cc1`, the GI50 was 0.623 µM in test [9]; 1.75 µM in test [1]; 1.83 µM in [2]; 1.74 µM in test [3]; 1.77 µM in test [4]; 1.82 µM in test [10]. In addition, the GI50 was 1.75 µM in test [5] and 1.79 µM in test [7]. Further, the TGI in test [9] is greater than 100 µM; in [1], 3.51 µM; in test [2] it was 3.71 µM; in test [3] it was 3.6 µM; in test [4], 3.35 µM; in test [10], 3.52 µM. Moreover, the TGI was determined as 3.38 µM in test [5] and 3.67 µM in test [7].
Take `Cc1cc(N/N=C/c2nc(-c3ccc(Br)cc3)oc2C)c2cc(Cl)ccc2n1`: the GI50 in [9], in [1], in test [2], in test [3], in test [4] and in test [10] was greater than 100 µM throughout. Moreover, the GI50 in test [5], in test [6], in test [7] and in test [8] was greater than 100 µM in each case. The TGI in test [9], in [1], in test [2], in [3], in test [4] and in [10] was greater than 100 µM each time. Further, the TGI in test [5], in [6], in test [7] and in test [8] was greater than 100 µM throughout.
Regarding `CCCCCCCCCCCCCCCCCC(=O)OCC(COC1OC(COP(=O)(O)O)C(O)C(O)C1O)OC(=O)CCCCCCCCCCCCCCCCC` (stereo unspecified), the TGI in test [2] is 17.2 µM; in test [3], 28.9 µM; in test [4], 17.1 µM; in [10], 14.2 µM; in test [5], 13 µM; in test [6], 17.3 µM. The TGI in test [7] worked out at 14.9 µM; in test [8], 17.4 µM.
As for `C/C(=N\Nc1ccc2ccccc2n1)c1ccccn1`, the GI50 in [9] is less than 0.0335 µM; in test [2], 0.0627 µM; in test [3] it was less than 0.0332 µM; in test [4], 0.223 µM; in test [10], 0.0756 µM; in [5] it was 0.115 µM. Also, the GI50 in test [6] was less than 0.0394 µM; in test [7], 0.1 µM; in test [8] it was 1.94 µM. For the same compound, the TGI was 2.38 µM in test [9]; 0.21 µM in test [1]; 1.42 µM in test [2]; 3.2 µM in test [3]; 8.09 µM in test [4]; 2.15 µM in [10]. For the same compound, the TGI in test [5] was 9.12 µM; in [6], 0.404 µM; in test [7], 1.69 µM; in [8], 30.5 µM.
Regarding `CCN(C(=O)N1CCN(c2cc3c(cc2F)c(=O)c(C(=O)O)cn3C2CC2)CC1)c1nc(-c2ccc(C)cc2)cs1`, the GI50 in [9] is 0.269 µM; in test [1], 1.02 µM; in test [3], 2.11 µM; in [4], 0.56 µM; in test [5], 0.41 µM; in test [6] it was 0.469 µM. The figures for the GI50 in [7] and in test [8] were 0.954 µM and 0.46 µM, respectively. For the same compound, the TGI is greater than 100 µM in [9]; greater than 100 µM in test [3]; greater than 100 µM in test [4]; greater than 100 µM in test [5]; greater than 100 µM in test [6]; 10.8 µM in test [7]. The compound further registered a TGI in [8] of 4.28 µM.
On to `CS(=O)(=O)c1ccc(C(=O)Nc2ccc(Cl)c(-c3ccccn3)c2)c(Cl)c1`, for which the TGI was > 100 µM and 20.9 µM in test [9]; > 94 µM and 9.43 µM in test [1]; > 100 µM and 10.1 µM in test [2]; > 100 µM and 12.1 µM in [3]; > 100 µM and 31.6 µM in test [10]; > 100 µM and 10.2 µM in [5]. For the same compound, the TGI is > 100 µM and 14.7 µM in test [6]; greater than 100 µM in [7]; greater than 100 µM in [8]. Besides, the GI50 was 41.9 µM and 5.24 µM in [10]; 63.2 µM in [7].
Take `CCN1CCC(CCOC)(CN2c3ccccc3Sc3ccc(Cl)cc32)C1` (stereo unspecified): the GI50 was 4.01 µM in test [9]; 1.74 µM in test [1]; 2.05 µM in [3]; 1.74 µM in test [4]; 1.91 µM in test [10]; 1.79 µM in [5]. Moreover, the GI50 is 1.81 µM in [7] and 2.12 µM in test [8]. In addition, the TGI in [9] was greater than 100 µM; in test [1], 3.59 µM; in test [3], 4.6 µM; in test [4], 3.35 µM; in test [10], 3.6 µM; in test [5], 3.43 µM. For the same compound, the TGI in [7] was 3.39 µM; in test [8], 6.55 µM.
